The values below come from US20050010368A1, “Method for the prediction of binding targets and the design of ligands” (priority 1997, published 2005).

In assay [1] the target is T1, endothiapepsin (Cryphonectria parasitica, UniProt P11838). The following applies: relative to wild type pepstatin A.
Text: In all cases, the coordinate sets for the complexes between the protein and the mutated peptides are generated by using the coordinates of the wild type complex as a template. Replacement mutants are created by replacing the original side chain with the desired mutation, leaving the backbone in the original conformation. For mutations that involve the addition of an extra amino acid at either end of the peptide chain, the backbone torsional angles are also included in the minimization.
The inhibitor contains two residues of the unusual amino acid statine (Sta: 4(S)-amino-3(S)-hydroxy-6methylheptanoic acid). […] Two different mutations of pepstatin A were studied. […] Twelve possible mutations at this position were considered (Cys, Gly, His, Ile, Leu, Met, Phe, Ser, Thr, Trp, Tyr, Val). For each of these mutations, the most probable conformation was identified. In the second case, the addition of an amino acid at the carboxy terminus of pepstatin A was considered. In this case, a simultaneous optimization of side chain and backbone conformations was performed in order to identify the most probable conformation.
Assay [2] addresses T1, endothiapepsin. It counts as biochemical. The source says:
The ΔΔG values are relative to the wild type. […] To test the structure-based thermodynamic prediction, the A5F mutant of pepstatin A was synthesized and the overall inhibition constant determined experimentally.

Assay [3] concerns the target T1, endothiapepsin. The following applies: reference cited, cited from earlier work.
Assay [4] has as its target T1, endothiapepsin. The source says: The second mutation considered in this study involved the addition of an amino acid at the carboxy terminus of the peptide.
Assay [5] has as its target T2, V82A mutant HIV-1 protease (Human immunodeficiency virus type 1 group M subtype B, UniProt P04585, V570A).
T2 construct: the complex of A77003 with the V82A mutant HIV-1 protease
The note with it: V82A mutant vs wild type; Baldwin et al., 1995; cited from earlier work.

Assay [6] addresses HIV-1 protease (Human immunodeficiency virus type 1 group M subtype B, UniProt P04585). The assay can be described thus: Structure-based thermodynamic calculation of inhibitor binding to HIV-1 protease. The protocol: In all cases presented here the Gibbs energy of binding, ΔG, was calculated from the published crystallographic structures using procedures previously described (D'Aquino et al., 1996; Gomez et al., 1995(a); Gomez et al., 1995(b); Hilser et al., 1996(b); Luque et al., 1996). These calculations require the structures of the complex as well as the structures of the unligated protein and unligated inhibitor. In this approach, the generic portion of the Gibbs energy, ΔGgen, is calculated from a separate computation of its enthalpy and entropy components. […]
The most significant structural/solvation contributions to the total free energy of binding are contained in the term […] which is calculated by estimating separately its enthalpy and entropy components. […]
The changes in accessible surface areas were calculated by implementing the Lee and Richards algorithm (Lee et al., 1971). […]
In binding or folding, the bulk of the enthalpy change originates from the formation of internal interactions (van der Waals, hydrogen bonds, etc.) and the parallel desolvation of the interacting groups. […] For example, it has been shown that for binding processes in which protons are either released or absorbed the measured enthalpy depends on the ionization enthalpy of the buffer (Gomez et al., 1995(b)). […]

Like-named read-outs stand apart in the source and are kept apart here.

T1 sequence (P11838 90-419): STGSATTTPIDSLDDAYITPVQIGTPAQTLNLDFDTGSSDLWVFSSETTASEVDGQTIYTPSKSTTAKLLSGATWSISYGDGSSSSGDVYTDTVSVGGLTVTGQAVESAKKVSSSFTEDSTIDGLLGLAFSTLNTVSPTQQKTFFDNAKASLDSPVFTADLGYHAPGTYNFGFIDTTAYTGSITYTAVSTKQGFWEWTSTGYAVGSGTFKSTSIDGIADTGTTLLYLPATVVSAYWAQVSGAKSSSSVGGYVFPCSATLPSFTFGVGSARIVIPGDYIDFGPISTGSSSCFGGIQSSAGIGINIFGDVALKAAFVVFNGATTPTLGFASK

For the compound Iva-Val-Val-Sta-Phe-Sta, in assay [1], the “Gibbs energy of binding more favorable than the wild type” value is “about 1 kcal/mol”. Moreover, in assay [2], the “binding affinity relative to wild type pepstatin A” value is listed as “higher affinity”, the “deviation of ΔG from its predicted value” is given as 0.2 kcal/mol and the “ΔG(25)exp” value is -13.3 kcal/mol.

On to Iva-Val-Val-Sta-Ala-Sta [Pepstatin A], for which the ΔH of binding in assay [3] (measured under the same conditions (16° C.)) was -4.1 kcal/mol. For the same compound, the ΔCp of binding in assay [3] (measured under the same conditions) was −310 cal/K•mol. Moreover, the “ΔG(25)exp” value in assay [2] (experimental binding Gibbs energy at 25° C.) was -12.7 kcal/mol.

Iva-Val-Val-Sta-Ala-Sta-Glu: the “enthalpy change (ΔH) of binding” value in assay [4] (16° C., calorimetric) was -4.6 ± 0.1 kcal/mol. Also, in assay [4] (from temperature dependence of the binding enthalpy change), the “heat capacity change (ΔCp)” value is −260±20 cal/K•mol. In addition, in assay [2], the “binding affinity relative to wild type pepstatin A” value is “lower affinity” and the “ΔG(25)exp” value was -11.3 kcal/mol.

Turning to `CC(C)[C@H](NC(=O)N(C)Cc1ccccn1)C(=O)N[C@@H](Cc1ccccc1)[C@H](O)[C@H](O)[C@H](Cc1ccccc1)NC(=O)[C@@H](NC(=O)N(C)Cc1ccccn1)C(C)C` [A77003], the “reduction in binding affinity measured experimentally” value in assay [5] was 4 fold.

For the compound `CC(C)CN(C[C@@H](O)[C@H](Cc1ccccc1)NC(=O)O[C@H]1CCOC1)S(=O)(=O)c1ccc(N)cc1` [VX478], the ΔΔG in assay [6] was -0.563 kcal/mol.
